Laboratory results from PMC10077203, “Structure modification, antialgal, antiplasmodial, and toxic evaluations of a series of new marine-derived 14-membered resorcylic acid lactone derivatives” (Marine Life Science & Technology, 2021).
Values joined by “and” are separate entries in the source; they are usually repeats but may differ in a detail not shown here. Equal entries are not always repeated. Where two headings read alike, the source gives them in different places.

Columns and labels:
[1] = test system: chloroquine sensitive HB3 strain of P. falciparum; test: In vitro antiplasmodial assay (Pico-Green growth inhibition); assay type: cell-based, Plasmodium falciparum; settings: for IC50: Plasmodium falciparum; for antiplasmodial activity against P. falciparum (in words): structure-activity discussion
Description: In vitro antiplasmodial activity was performed by culturing human erythrocytes and infecting them with P. falciparum, as reported by Trager and Jensen ([1976]). Briefly, the chloroquine sensitive HB3 strain of P. falciparum-infected O + erythrocytes was cultured in RPMI 1640 medium supplemented with 10% human serum (from O + blood) at a hematocrit of 2% erythrocytes at 37 °C with a gas mixture containing 90% N2, 5% CO2, and 5% O2. Parasites were synchronized with 5% D-sorbitol (Lambros and Vanderberg [1979]). P. falciparum growth inhibition bioassays were performed with the procedure as described by Corbett et al. ([2004]), which used Pico-Green, a double stranded-DNA fluorescent dye to test the effect of compounds.

[2] = test system: P. tricornutum Bohlin; test: Diatom growth inhibition assay (antialgal activity); assay type: cell-based, Phaeodactylum tricornutum Bohlin; settings: 48 h, read-out: EC50 P. tricornutum
Description: (§1) The antialgal activity against the microalgae P. tricornutum Bohlin, C. vulgaris, C. socialis, N. laevissima, and N. exigua was evaluated by the method of Ortlepp et al. ([2008]). Briefly, the microalgae were grown in sterilized BG11 medium under light intensity of 2500 lx and 12 h: 12 h light: dark cycle at temperature of 20 ℃. The microalgae were grown to reach the logarithmic phase (approximately 5 × 10^5 cells/ml), which were used for microalgae growth inhibition assay. The compounds 1–71 were first dissolved in a small amount of DMSO and then diluted with 0.22 μm of filtered seawater (FSW) to achieve a range of concentrations from 0.625 to 50 μg/ml. Ten microliters of the compound solution was added to multiwell Petri dishes containing a 1-mL suspension of the microalgae (approximately 12 × 10^4 cells/ml). FSW with DMSO was used as a negative control, and solutions of SeaNine 211 in seawater were used as positive controls. After the plates were incubated for 48 h (16 ± 1 ℃) under continuous light, the FSW with non-attached microalgae was removed. The amount of chlorophyll a in attached microalgae was determined with a spectrophotometer (Beckman, model DU650, USA). Then the EC50 (inhibits 50% of settlement of cyprids in comparison with the control) was calculated using the Probit software program.

[3] = test system: C. vulgaris; test: as above; assay type: cell-based, Chlorella vulgaris; settings: 48 h, read-out: EC50 C. vulgaris
Description: as §1

[4] = test system: N. laevissima; test: as above; assay type: cell-based, Navicula laevissima; settings: 48 h, read-out: EC50 N. laevissima
Description: as §1

[5] = test system: C. socialis; test: as above; assay type: cell-based, Chaetoceros socialis; settings: 48 h, read-out: EC50 C. socialis
Description: as §1

[6] = test system: N. exigua; test: as above; assay type: cell-based, Navicula exigua
Description: as §1

[7] = test system: P. tricornutum Bohlin, C. vulgaris, C. socialis, N. laevissima, and N. exigua; test: Diatom growth inhibition assay, whole panel; assay type: cell-based; settings: Chlorella vulgaris; selective and moderate activities; read-out: EC50 antialgal, range over compounds and algae
Description: as §1

[8] = Phaeodactylum tricornutum, chlorophyll a of attached microalgae
[9] = Chlorella vulgaris, chlorophyll a of attached microalgae
[10] = Sellaphora laevissima, chlorophyll a of attached microalgae
[11] = Chaetoceros socialis, chlorophyll a of attached microalgae
[12] = 48 h, chlorophyll a of attached microalgae, read-out: EC50 N. exigua
[13] = chlorophyll a of attached microalgae
[14] = Erythrocyte, HB3 strain in human erythrocytes, read-out: P. falciparum IC50
[15] = 48 h, chlorophyll a of attached microalgae; read-out: EC50 N. exigua

Structure (SMILES) | EC50 [2, 8] [µM] | EC50 [3, 9] [µM] | EC50 [4, 10] [µM] | EC50 [7] [µM] | EC50 [5, 11] [µM] | EC50 [6, 12] [µM] | further results
CCN(CC)CCCC(C)Nc1ccnc2cc(Cl)ccc12 (stereo not drawn) [Chloroquine, reference compound] |  |  |  |  |  |  | IC50 ([1]; HB3, Erythrocyte, read-out: P. falciparum IC50): 37.9 µM; IC50 ([1]; HB3, read-out: P. falciparum IC50 (positive control, methods)): 0.0329 µM
COc1cc(O)c2c(c1)/C=C/C[C@H](O)[C@H](O)[C@@H](O)/C=C/C[C@H](C)OC2=O [Compound 1, zeaenol] |  |  |  |  |  |  | EC50 ([2]; Phaeodactylum tricornutum): 12.6 µM; EC50 ([3]; Chlorella vulgaris): > 10 µM; EC50 ([4]; Sellaphora laevissima): 8.79 µM; EC50 ([5]; Chaetoceros socialis): 25.4 µM; EC50 ([6]; 48 h, read-out: EC50 N. exigua): 23.9 µM
COc1cc(OC(=O)C(C)(C)C)c2c(c1Cl)C=CCC(O)C(O)C(O)C=CCC(C)OC2=O (stereo not drawn) [Compound 3] | 22.3 | 30.9 | > 10 | 11 to 32.5 | > 10 | > 10 | 
COc1cc2c(c(OCc3ccccc3)c1)C(=O)OC(C)CC=CC(O)C(O)C(O)CC=C2 (stereo not drawn) [Compound 4] | 21 | > 10 | 13.6 | 11 to 32.5 | > 10 | 11 | 
COc1cc2c(c(OCc3ccccc3Br)c1)C(=O)OC(C)CC=CC(O)C(O)C(O)CC=C2 (stereo not drawn) [Compound 9] | < 10 | > 10 | < 10 |  | < 10 | 19.2 | EC50 [2, 13]: 6.99 µM; EC50 [4, 13]: 6.67 µM; EC50 [5, 13]: 9 µM
COc1cc(COc2cc(OC)cc3c2C(=O)OC(C)CC=CC(O)C(O)C(O)CC=C3)cc(OC)c1 (stereo not drawn) [Compound 12] | 32.5 | > 10 | 20 | 11 to 32.5 | > 10 | > 10 | 
COc1cc2c(c(OCc3cc(F)cc(F)c3)c1)C(=O)OC(C)CC=CC(O)C(O)C(O)CC=C2 (stereo not drawn) [Compound 15] | 33.1 | > 10 | > 10 | 11 to 32.5 | 15 | 18.8 | 
COc1cc2c(c(OCc3ccc(Br)cc3F)c1)C(=O)OC(C)CC=CC(O)C(O)C(O)CC=C2 (stereo not drawn) [Compound 24] | 11.2 | > 10 | 22.4 | 11 to 32.5 | > 10 | 10.2 | 
CCC(=O)Oc1cc(OC)cc2c1C(=O)OC(C)CC=CC1OC(C)(C)OC1C(O)CC=C2 (stereo not drawn) [Compound 30] |  |  |  |  |  |  | IC50 [1, 14]: 12.4 µM; antiplasmodial activity against P. falciparum (in words) [1]: moderate activity
COCC(=O)Oc1cc(OC)cc2c1C(=O)O[C@@H](C)C/C=C/[C@H](O)[C@@H](O)[C@@H](O)C/C=C/2 [Compound 34] | 16.2 | 12.1 | 8.55 |  | > 10 | 8.76 | antiplasmodial activity against P. falciparum (in words) [1]: moderate activity; EC50 [4, 13]: 8.76 µM; EC50 [6, 15]: 8.55 µM
COCC(=O)Oc1cc(OC)c(Cl)c2c1C(=O)OC(C)CC=CC1OC(C)(C)OC1C(OC(=O)COC)CC=C2 (stereo not drawn) [Compound 35] |  |  |  |  |  |  | IC50 [1, 14]: 11.6 µM
COc1cc2c(c(OCc3ccc(C(F)(F)F)cc3)c1)C(=O)OC(C)CC=CC1OC(C)(C)OC1C(O)CC=C2 (stereo not drawn) [Compound 45] | > 10 | 13 | 27.4 | 11 to 32.5 | > 10 | 18.3 | 
[2H]C([2H])([2H])C1(C([2H])([2H])[2H])OC2C=CCC(C)OC(=O)c3c(cc(OC)cc3OCc3ccccc3Br)C=CCC(O)C2O1 (stereo not drawn) [Compound 58] | 28.2 | 15.9 | > 10 | 11 to 32.5 | > 10 | 20.1 | 
[2H]C([2H])([2H])C1(C([2H])([2H])[2H])OC2C=CCC(C)OC(=O)c3c(cc(OC)cc3OCc3cccc(F)c3)C=CCC(O)C2O1 (stereo not drawn) [Compound 60] |  |  |  |  |  |  | antiplasmodial activity against P. falciparum (in words) [1]: active
CCC(=O)Oc1cc(OC)cc2c1C(=O)OC(C)CC=CC(OC(=O)CC)C(OC(=O)CC)C(OC(=O)CC)CC=C2 (stereo not drawn) [Compound 69] |  |  |  |  |  |  | IC50 [1, 14]: 9.18 µM
CCCCCCCCn1sc(Cl)c(Cl)c1=O [SeaNine 211, reference compound] |  |  |  |  |  |  | EC50 [2, 13]: 0.74 µM; EC50 [3, 13]: 6.52 µM; EC50 [4, 13]: 2.9 µM; EC50 [5, 13]: 1.87 µM; EC50 [6, 15]: 9.74 µM and 9.47 µM
